# Measured values taken from ChEMBL document CHEMBL4000252, “Discovery of N-(2-aminoethyl)-N-benzyloxyphenyl benzamides: New potent Trypanosoma brucei inhibitors” (Bioorg Med Chem, 2017).
# Calls of active or inactive are those of the source. The calls are words filed in the database; no cut-off is given here.
# Columns and labels:
# [1] = test system: Trypanosoma brucei brucei; assay: Antiparasitic activity against Trypanosoma brucei brucei BF427 assessed as growth inhibition after 48 hrs by Alamar blue assay; type: functional; conditions: BF427, 48 h
# [2] = Cytotoxicity against human CRL8155 cells assessed as growth inhibition after 48 hrs by Alamar blue assay; type: cell-based; conditions: crl8155, 48 h
# [3] = test system: HepG2; assay: Cytotoxicity against human HepG2 cells assessed as growth inhibition after 48 hrs by Alamar blue assay; type: cell-based; conditions: hepg2, 48 h
# [4] = test system: Trypanosoma brucei rhodesiense; assay: Antiparasitic activity against Trypanosoma brucei rhodesiense STIB900 assessed as growth inhibition after 48 hrs by Alamar blue assay; type: functional; conditions: STIB900, 48 h
# [5] = biological target: Cytochrome P450 3A4 (Homo sapiens, UniProt P08684); assay: Inhibition of human CYP3A4; type: ADME
# Chain of Cytochrome P450 3A4 (P08684 whole entry): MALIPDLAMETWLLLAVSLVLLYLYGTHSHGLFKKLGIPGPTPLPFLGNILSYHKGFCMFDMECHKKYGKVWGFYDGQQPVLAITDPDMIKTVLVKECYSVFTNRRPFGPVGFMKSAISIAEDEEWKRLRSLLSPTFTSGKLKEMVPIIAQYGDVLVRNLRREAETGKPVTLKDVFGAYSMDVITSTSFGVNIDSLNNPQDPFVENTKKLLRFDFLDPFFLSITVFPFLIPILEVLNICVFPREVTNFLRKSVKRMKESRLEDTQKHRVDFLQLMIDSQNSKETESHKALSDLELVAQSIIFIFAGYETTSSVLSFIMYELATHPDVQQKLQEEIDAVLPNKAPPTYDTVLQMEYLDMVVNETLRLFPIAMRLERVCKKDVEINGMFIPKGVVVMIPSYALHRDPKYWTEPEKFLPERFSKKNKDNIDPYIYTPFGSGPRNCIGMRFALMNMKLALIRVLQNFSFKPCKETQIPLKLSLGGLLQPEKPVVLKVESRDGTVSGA
# [6] = test system: Liver; assay: Half life in human liver microsomes at 1.5 uM by LC-MS analysis; type: ADME, microsome
# [7] = test system: Liver; assay: Half life in mouse liver microsomes at 1.5 uM by LC-MS analysis; type: ADME, microsome
# [8] = Ratio of drug level in brain to plasma in mouse at 5 mg/kg, ip after 1 hr by LC-MS analysis; type: ADME, organism-based
# [9] = Cmax in mouse at 50 mg/kg, po by LC-MS analysis; type: ADME, organism-based; design: dose 50 mg/kg, route oral; conditions: in vivo
# [10] = AUC (0 to 8 hrs) in mouse at 50 mg/kg, po by LC-MS analysis; type: ADME, organism-based; design: dose 50 mg/kg, time < 8 hr, route oral; conditions: in vivo
# [11] = test system: Trypanosoma brucei rhodesiense; assay: Antiparasitic activity against Trypanosoma brucei rhodesiense STIB900 infected in Swiss-Webster mouse assessed as cure rate at 50 mg/kg, bid administered via oral gavage from day 2 to 5 post infection measured after 60 days by microscopic method relative to control; type: functional
# [12] = test system: Trypanosoma brucei brucei; assay: Antiparasitic activity against Trypanosoma brucei brucei BF427 assessed as growth inhibition at 32 times EC50 pretreated for 24 hrs followed by compound washout measured after 10 days by light microscopic method; type: functional
# [13] = test system: Trypanosoma brucei brucei; assay: Antiparasitic activity against Trypanosoma brucei brucei BF427 assessed as growth inhibition at 16 times EC50 pretreated for 48 hrs followed by compound washout measured after 10 days by light microscopic method; type: functional
# [14] = test system: Trypanosoma brucei brucei; assay: Antiparasitic activity against Trypanosoma brucei brucei BF427 assessed as growth inhibition at 16 times EC50 pretreated for 72 hrs followed by compound washout measured after 10 days by light microscopic method; type: functional
# [15] = test system: Trypanosoma brucei brucei; assay: Antiparasitic activity against Trypanosoma brucei brucei BF427 assessed as growth inhibition at 16 times EC50 pretreated for 96 hrs followed by compound washout measured after 10 days by light microscopic method; type: functional
# [16] = test system: Trypanosoma brucei brucei; assay: Antiparasitic activity against Trypanosoma brucei brucei TREU667 infected in mouse assessed as decrease in parasitemia at 50 mg/kg, bid administered via oral gavage on day 21 to 34 post infection measured on day 34 by microscopic method; type: functional, organism-based
# [17] = test system: Trypanosoma brucei brucei; assay: Antiparasitic activity against Trypanosoma brucei brucei TREU667 infected in mouse assessed as decrease in parasitemia at 50 mg/kg, bid administered via oral gavage on day 21 to 34 post infection measured on day 35 by microscopic method; type: functional, organism-based
# [18] = test system: Trypanosoma brucei brucei; assay: Antiparasitic activity against Trypanosoma brucei brucei TREU667 infected in mouse assessed as decrease in parasitemia at 50 mg/kg, bid administered via oral gavage on day 21 to 34 post infection measured on day 36 by microscopic method; type: functional, organism-based
# [19] = test system: Trypanosoma brucei brucei; assay: Antiparasitic activity against Trypanosoma brucei brucei TREU667 infected in mouse assessed as decrease in parasitemia at 50 mg/kg, bid administered via oral gavage on day 21 to 34 post infection measured on day 46 to 49 by microscopic method; type: functional, organism-based
# [20] = test system: Trypanosoma brucei brucei; assay: Antiparasitic activity against Trypanosoma brucei brucei TREU667 infected in mouse assessed as decrease in parasitemia at 50 mg/kg, bid administered via oral gavage on day 21 to 34 post infection measured on day 41 to 42 by microscopic method; type: functional, organism-based
# [21] = test system: Trypanosoma brucei brucei; assay: Antiparasitic activity against Trypanosoma brucei brucei TREU667 infected in mouse assessed as decrease in parasitemia at 50 mg/kg, bid administered via oral gavage on day 21 to 34 post infection measured on day 40 by microscopic method; type: functional, organism-based
# [22] = test system: Trypanosoma brucei brucei; assay: Antiparasitic activity against Trypanosoma brucei brucei TREU667 infected in mouse assessed as decrease in parasitemia at 50 mg/kg, bid administered via oral gavage on day 21 to 34 post infection measured on day 37 by microscopic method; type: functional, organism-based
# [23] = test system: Trypanosoma brucei brucei; assay: Antiparasitic activity against Trypanosoma brucei brucei TREU667 infected in mouse assessed as decrease in parasitemia at 50 mg/kg, bid administered via oral gavage on day 21 to 34 post infection measured on day 38 by microscopic method; type: functional, organism-based
# [24] = test system: Trypanosoma brucei brucei; assay: Antiparasitic activity against Trypanosoma brucei brucei TREU667 infected in mouse assessed as decrease in parasitemia at 50 mg/kg, bid administered via oral gavage on day 21 to 34 post infection measured on day 39 by microscopic method; type: functional, organism-based
# [25] = test system: Trypanosoma brucei brucei; assay: Antiparasitic activity against Trypanosoma brucei brucei TREU667 infected in mouse assessed as decrease in parasitemia at 50 mg/kg, bid administered via oral gavage on day 21 to 34 post infection measured on day 43 to 45 by microscopic method; type: functional, organism-based
# [26] = test system: Trypanosoma brucei brucei; assay: Antiparasitic activity against Trypanosoma brucei brucei TREU667 infected in mouse assessed as decrease in parasitemia at 50 mg/kg, bid administered via oral gavage on day 21 to 34 post infection measured on day 50 to 51 by microscopic method; type: functional, organism-based
# [27] = test system: Trypanosoma brucei brucei; assay: Antiparasitic activity against Trypanosoma brucei brucei TREU667 infected in mouse assessed as decrease in parasitemia at 50 mg/kg, bid administered via oral gavage on day 21 to 34 post infection measured on day 52 to 180 by microscopic method; type: functional, organism-based
# [28] = test system: Trypanosoma brucei brucei; assay: Antiparasitic activity against Trypanosoma brucei brucei BF427 assessed as growth inhibition at 4 times EC50 pretreated for 24 hrs followed by compound washout measured after 10 days by light microscopic method; type: functional
# [29] = test system: Trypanosoma brucei brucei; assay: Antiparasitic activity against Trypanosoma brucei brucei BF427 assessed as growth inhibition at 4 times EC50 pretreated for 48 hrs followed by compound washout measured after 10 days by light microscopic method; type: functional
# [30] = test system: Trypanosoma brucei brucei; assay: Antiparasitic activity against Trypanosoma brucei brucei BF427 assessed as growth inhibition at EC50 pretreated for 72 hrs followed by compound washout measured after 10 days by light microscopic method; type: functional
# [31] = test system: Trypanosoma brucei brucei; assay: Antiparasitic activity against Trypanosoma brucei brucei BF427 assessed as growth inhibition at EC50 pretreated for 96 hrs followed by compound washout measured after 10 days by light microscopic method; type: functional
# [32] = test system: Trypanosoma brucei brucei; assay: Antiparasitic activity against Trypanosoma brucei brucei TREU667 infected in mouse assessed as decrease in parasitemia at 10 mg/kg, ip administered as single dose on day 21 post infection measured on day 34 by microscopic method; type: functional, organism-based
# [33] = test system: Trypanosoma brucei brucei; assay: Antiparasitic activity against Trypanosoma brucei brucei TREU667 infected in mouse assessed as decrease in parasitemia at 10 mg/kg, ip administered as single dose on day 21 post infection measured on day 35 by microscopic method; type: functional, organism-based
# [34] = test system: Trypanosoma brucei brucei; assay: Antiparasitic activity against Trypanosoma brucei brucei TREU667 infected in mouse assessed as decrease in parasitemia at 10 mg/kg, ip administered as single dose on day 21 post infection measured on day 36 by microscopic method; type: functional, organism-based
# [35] = test system: Trypanosoma brucei brucei; assay: Antiparasitic activity against Trypanosoma brucei brucei TREU667 infected in mouse assessed as decrease in parasitemia at 10 mg/kg, ip administered as single dose on day 21 post infection measured on day 37 by microscopic method; type: functional, organism-based
# [36] = test system: Trypanosoma brucei brucei; assay: Antiparasitic activity against Trypanosoma brucei brucei TREU667 infected in mouse assessed as decrease in parasitemia at 10 mg/kg, ip administered as single dose on day 21 post infection measured on day 38 by microscopic method; type: functional, organism-based
# [37] = test system: Trypanosoma brucei brucei; assay: Antiparasitic activity against Trypanosoma brucei brucei TREU667 infected in mouse assessed as decrease in parasitemia at 10 mg/kg, ip administered as single dose on day 21 post infection measured on day 39 by microscopic method; type: functional, organism-based
# [38] = test system: Trypanosoma brucei brucei; assay: Antiparasitic activity against Trypanosoma brucei brucei TREU667 infected in mouse assessed as decrease in parasitemia at 10 mg/kg, ip administered as single dose on day 21 post infection measured on day 40 by microscopic method; type: functional, organism-based
# [39] = test system: Trypanosoma brucei brucei; assay: Antiparasitic activity against Trypanosoma brucei brucei TREU667 infected in mouse assessed as decrease in parasitemia at 10 mg/kg, ip administered as single dose on day 21 post infection measured on day 41 to 42 by microscopic method; type: functional, organism-based
# [40] = test system: Trypanosoma brucei brucei; assay: Antiparasitic activity against Trypanosoma brucei brucei TREU667 infected in mouse assessed as decrease in parasitemia at 10 mg/kg, ip administered as single dose on day 21 post infection measured on day 43 to 45 by microscopic method; type: functional, organism-based
# [41] = test system: Trypanosoma brucei brucei; assay: Antiparasitic activity against Trypanosoma brucei brucei TREU667 infected in mouse assessed as decrease in parasitemia at 10 mg/kg, ip administered as single dose on day 21 post infection measured on day 50 to 51 by microscopic method; type: functional, organism-based
# [42] = test system: Trypanosoma brucei brucei; assay: Antiparasitic activity against Trypanosoma brucei brucei TREU667 infected in mouse assessed as decrease in parasite levels in peripheries at 10 mg/kg, ip administered as single dose on day 21 post infection by microscopic method; type: functional, organism-based
# [43] = test system: Trypanosoma brucei brucei; assay: Antiparasitic activity against Trypanosoma brucei brucei TREU667 infected in mouse assessed as decrease in parasite levels in brain at 10 mg/kg, ip administered as single dose on day 21 post infection by microscopic method; type: functional, organism-based
structure (smiles),measurement,setting,value
Cl.NCCN(C(=O)c1ccc(Cl)cc1Cl)c1ccc(OCc2ccc(Cl)cc2)cc1,EC50,[1],31 nM
same,CC50,[2],2000 nM
same,CC50,[3],2000 nM
same,EC50,[4],5 nM
same,IC50,[5],179 nM
same,t1/2,[6],> 60 min
same,t1/2,[7],35 min
same,BPR,[8],0.42
same,Cmax,[9],530 nM
same,AUC(0-t) at 8 h,[10],3.42 µM·h
same,Activity,[11],67 - 80%
same,growth inhibition (GI),[12],Active
same,growth inhibition (GI),[13],Active
same,growth inhibition (GI),[14],Active
same,growth inhibition (GI),[15],Active
CC1(C)OB(O)c2cc(NC(=O)c3ccc(F)cc3C(F)(F)F)ccc21,Activity,[16],Active
same,Activity,[17],Active
same,Activity,[18],Active
same,Activity,[19],Active
same,Activity,[20],Active
same,Activity,[21],Active
same,Activity,[22],Active
same,Activity,[23],Active
same,Activity,[24],Active
same,Activity,[25],Active
same,Activity,[26],Active
same,Activity,[27],Active
N=C(N)c1ccc(OCCCCCOc2ccc(C(=N)N)cc2)cc1,growth inhibition (GI),[28],Active
same,growth inhibition (GI),[29],Active
same,growth inhibition (GI),[30],Active
same,growth inhibition (GI),[31],Active
N=C(N)c1ccc(/N=N/Nc2ccc(C(=N)N)cc2)cc1,Activity,[32],Active
same,Activity,[33],Active
same,Activity,[34],Active
same,Activity,[35],Active
same,Activity,[36],Active
same,Activity,[37],Active
same,Activity,[38],Active
same,Activity,[39],Active
same,Activity,[40],Active
same,Activity,[41],inactive
same,Activity,[42],Active
same,Activity,[43],inactive
